# ChEMBL document CHEMBL1139973, “Synthesis and structure-activity relationships of taxuyunnanine C derivatives as multidrug resistance modulator in MDR cancer cells” (Bioorg Med Chem Lett, 2007)
# Key:
# [1] = target: T1, ATP-dependent translocase ABCB1 (Homo sapiens, UniProt P08183); experiment: Inhibition of Pgp in multidrug-resistant human 2780AD cells assessed as calcein accumulation at 2.5 ug/mL relative to control; assay type: cell-based; set-up: scale not given: the % may be the effect or the level left; details: a2780 adr
# T1 sequence (P08183 whole entry): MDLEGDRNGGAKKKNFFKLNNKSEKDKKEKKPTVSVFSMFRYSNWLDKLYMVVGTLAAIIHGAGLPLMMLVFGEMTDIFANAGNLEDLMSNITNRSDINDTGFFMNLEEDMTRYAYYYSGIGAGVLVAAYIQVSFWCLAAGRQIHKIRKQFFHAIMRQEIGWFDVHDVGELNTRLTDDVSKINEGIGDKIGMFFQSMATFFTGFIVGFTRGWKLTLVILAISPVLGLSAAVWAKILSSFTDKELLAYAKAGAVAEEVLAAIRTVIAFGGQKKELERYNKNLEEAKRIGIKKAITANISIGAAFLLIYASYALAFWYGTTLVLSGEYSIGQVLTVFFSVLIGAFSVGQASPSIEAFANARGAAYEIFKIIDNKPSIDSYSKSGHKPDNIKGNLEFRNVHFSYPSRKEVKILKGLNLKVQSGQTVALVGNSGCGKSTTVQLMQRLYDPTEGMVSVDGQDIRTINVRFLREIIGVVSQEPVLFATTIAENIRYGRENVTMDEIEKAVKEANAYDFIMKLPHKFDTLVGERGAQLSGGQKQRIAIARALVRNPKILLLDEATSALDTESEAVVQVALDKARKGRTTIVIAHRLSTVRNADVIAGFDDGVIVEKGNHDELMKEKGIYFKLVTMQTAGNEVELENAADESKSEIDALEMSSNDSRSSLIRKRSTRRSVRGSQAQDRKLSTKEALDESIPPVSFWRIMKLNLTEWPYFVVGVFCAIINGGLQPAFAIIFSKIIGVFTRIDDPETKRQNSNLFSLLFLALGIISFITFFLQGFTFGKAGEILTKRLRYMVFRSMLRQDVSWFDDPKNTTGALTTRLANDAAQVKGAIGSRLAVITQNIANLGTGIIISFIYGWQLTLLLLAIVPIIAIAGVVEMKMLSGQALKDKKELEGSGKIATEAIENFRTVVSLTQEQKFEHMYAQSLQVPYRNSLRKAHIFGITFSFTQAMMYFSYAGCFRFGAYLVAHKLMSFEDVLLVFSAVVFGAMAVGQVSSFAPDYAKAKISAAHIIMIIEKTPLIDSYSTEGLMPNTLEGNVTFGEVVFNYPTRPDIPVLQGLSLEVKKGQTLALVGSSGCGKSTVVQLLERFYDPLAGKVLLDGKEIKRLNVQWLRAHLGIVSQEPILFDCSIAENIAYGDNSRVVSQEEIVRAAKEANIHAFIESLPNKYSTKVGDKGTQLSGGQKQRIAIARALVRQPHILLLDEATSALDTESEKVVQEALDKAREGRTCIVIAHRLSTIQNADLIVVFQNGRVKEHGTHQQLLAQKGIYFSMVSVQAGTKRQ
# [2] = target: T1, ATP-dependent translocase ABCB1; experiment: Inhibition of Pgp in multidrug-resistant human 2780AD cells assessed as vincristine accumulation at 1.0 ug/mL relative to verapamil; assay type: cell-based; set-up: scale not given: the % may be the effect or the level left; details: a2780 adr
# [3] = target: T1, ATP-dependent translocase ABCB1; experiment: Inhibition of Pgp in multidrug-resistant human 2780AD cells assessed as vincristine accumulation at 0.1 ug/mL relative to verapamil; assay type: cell-based; set-up: scale not given: the % may be the effect or the level left; details: a2780 adr
# [4] = system: WI-38 VA13; experiment: Growth inhibition of human VA13 cells; assay type: functional, cell-based
# [5] = target: T1, ATP-dependent translocase ABCB1; experiment: Inhibition of Pgp in multidrug-resistant human 2780AD cells assessed as vincristine accumulation at 10 ug/mL relative to verapamil; assay type: cell-based; set-up: scale not given: the % may be the effect or the level left; details: a2780 adr
# [6] = Growth inhibition of human WI38 cells; assay type: cell-based; details: WI-38
# [7] = system: HepG2; experiment: Growth inhibition of human HepG2 cells; assay type: functional, cell-based
# [8] = target: T1, ATP-dependent translocase ABCB1; experiment: Inhibition of Pgp in multidrug-resistant human 2780AD cells assessed as vincristine accumulation at 0.1 ug/mL relative to control; assay type: cell-based; set-up: scale not given: the % may be the effect or the level left; details: a2780 adr
# [9] = target: T1, ATP-dependent translocase ABCB1; experiment: Inhibition of Pgp in multidrug-resistant human 2780AD cells assessed as vincristine accumulation at 1.0 ug/mL relative to control; assay type: cell-based; set-up: scale not given: the % may be the effect or the level left; details: a2780 adr
# [10] = target: T1, ATP-dependent translocase ABCB1; experiment: Inhibition of Pgp in multidrug-resistant human 2780AD cells assessed as calcein accumulation at 0.25 ug/mL relative to control; assay type: cell-based; set-up: scale not given: the % may be the effect or the level left; details: a2780 adr
# [11] = target: T1, ATP-dependent translocase ABCB1; experiment: Inhibition of Pgp in multidrug-resistant human 2780AD cells assessed as vincristine accumulation at 10 ug/mL relative to control; assay type: cell-based; set-up: scale not given: the % may be the effect or the level left; details: a2780 adr
# [12] = target: T1, ATP-dependent translocase ABCB1; experiment: Inhibition of Pgp in multidrug-resistant human 2780AD cells assessed as calcein accumulation at 25 ug/mL relative to control; assay type: cell-based; set-up: scale not given: the % may be the effect or the level left; details: a2780 adr
Activity [1],Activity [2],Activity [3],Activity [5],IC50 [7],Activity [8],Activity [9],Activity [10],Activity [11],Activity [12],SMILES,IC50 [4],IC50 [6]
123%,118%,130%,81%,106 µM,132%,209%,92%,451%,126%,C=C1[C@@H](OC(C)=O)CC[C@@]2(C)C[C@H](OC(=O)/C=C/c3ccccc3)C3=C(C)C[C@H](OC(C)=O)[C@@H]([C@@H](OC(C)=O)[C@H]12)C3(C)C,> 169 µM,> 169 µM
139%,,,,28 µM,,,133%,,148%,C=C1[C@@H](OC(C)=O)CC[C@@]2(C)C[C@H](OC(C)=O)C3=C(C)C[C@H](OC(=O)C(C)C)[C@@H]([C@@H](OC(C)=O)[C@H]12)C3(C)C,90.9 µM,> 188 µM
105%,,,,10.3 µM,,,89%,,91%,C=C1[C@@H](OC(C)=O)CC[C@@]2(C)C[C@H](OC(C)=O)C3=C(C)CC[C@@H]([C@@H](OC(C)=O)[C@H]12)C3(C)C,12.2 µM,8.93 µM
98%,64%,84%,51%,108 µM,92%,119%,103%,229%,111%,C=C1[C@@H](OC(C)=O)CC[C@@]2(C)C[C@H](O)C3=C(C)C[C@H](OC(C)=O)[C@@H]([C@@H](OC(C)=O)[C@H]12)C3(C)C,12.6 µM,105 µM
103%,,,,> 154 µM,,,102%,,125%,C=C1[C@@H](OC(C)=O)CC[C@@]2(C)[C@@H](OC(=O)/C=C/c3ccccc3)[C@H](OC(C)=O)C3=C(C)C[C@H](OC(C)=O)[C@@H]([C@@H](OC(C)=O)[C@H]12)C3(C)C,> 154 µM,151 µM
98%,,,,> 144 µM,,,96%,,102%,C=C1[C@@H](OC(C)=O)C[C@H](OC(=O)/C=C/c2ccccc2)[C@@]2(C)C[C@H](OC(C)=O)C3=C(C)C[C@H](OC(=O)C(C)CC)[C@@H]([C@@H](OC(C)=O)[C@H]12)C3(C)C (stereo partly specified),> 144 µM,> 144 µM
88%,,,,16.6 µM,,,94%,,111%,C=C1[C@@H](OC(C)=O)CC[C@@]2(C)C[C@H](OC(C)=O)C3=C(C)C[C@H](OC(=O)CCCC)[C@@H]([C@@H](OC(C)=O)[C@H]12)C3(C)C,56.7 µM,> 183 µM
99%,84%,89%,74%,122 µM,101%,144%,99%,259%,111%,C=C1[C@@H](OC(C)=O)CC[C@@]2(C)C[C@H](OC(C)=O)C3=C(C)C[C@H](OC(C)=O)[C@@H]([C@@H](O)[C@H]12)C3(C)C,104 µM,130 µM
102%,,,,80.4 µM,,,97%,,130%,C=C1[C@@H](OC(C)=O)C[C@H](OC(=O)/C=C/c2ccccc2)[C@@]2(C)C[C@H](OC(C)=O)C3=C(C)C[C@H](OC(=O)C(C)C(C)O)[C@@H]([C@@H](OC(C)=O)[C@H]12)C3(C)C (stereo partly specified),49.9 µM,62.4 µM
98%,,,,86.4 µM,,,104%,,119%,C=C1[C@@H](OC(C)=O)CC[C@@]2(C)C[C@H](OC(C)=O)C3=C(C)C[C@H](OC(=O)CC)[C@@H]([C@@H](OC(C)=O)[C@H]12)C3(C)C,93.7 µM,> 193 µM
107%,,,,144 µM,,,90%,,133%,C=C1[C@@H](OC(C)=O)CC[C@@]2(C)C[C@H](OC(C)=O)C3=C(C)C[C@H](OC(=O)c4ccccc4)[C@@H]([C@@H](OC(C)=O)[C@H]12)C3(C)C,> 176 µM,> 176 µM
126%,75%,87%,62%,> 169 µM,95%,140%,123%,280%,125%,C=C1[C@@H](OC(C)=O)CC[C@@]2(C)C[C@H](OC(C)=O)C3=C(C)C[C@H](OC(=O)/C=C/c4ccccc4)[C@@H]([C@@H](OC(C)=O)[C@H]12)C3(C)C,> 169 µM,154 µM
95%,,,,9.95 µM,,,102%,,121%,C=C1[C@@H](OC(=O)/C=C/c2ccccc2)CC[C@@]2(C)C[C@H](OC(C)=O)C3=C(C)C[C@H](OC(C)=O)[C@@H]([C@@H](OC(C)=O)[C@H]12)C3(C)C,125 µM,99 µM
101%,58%,79%,37%,128 µM,86%,108%,102%,168%,110%,C=C1[C@@H](OC(C)=O)CC[C@@]2(C)[C@@H](O)[C@H](OC(C)=O)C3=C(C)C[C@H](OC(C)=O)[C@@H]([C@@H](OC(C)=O)[C@H]12)C3(C)C,> 192 µM,129 µM
98%,,,,75.2 µM,,,94%,,110%,C=C1[C@@H](OC(C)=O)C[C@H](O)[C@@]2(C)C[C@H](OC(C)=O)C3=C(C)C[C@H](OC(=O)C(C)CC)[C@@H]([C@@H](OC(C)=O)[C@H]12)C3(C)C (stereo partly specified),79.1 µM,81.6 µM
104%,,,,153 µM,,,87%,,107%,C=C1[C@@H](OC(C)=O)C[C@H](O)[C@@]2(C)C[C@H](OC(C)=O)C3=C(C)C[C@H](OC(=O)C(C)C(C)O)[C@@H]([C@@H](OC(C)=O)[C@H]12)C3(C)C (stereo partly specified),> 173 µM,140 µM
80%,49%,83%,27%,> 147 µM,91%,92%,83%,122%,80%,C=C1[C@@H](OC(C)=O)CC[C@@]2(C)C[C@H](OC(=O)/C=C/c3ccccc3)C3=C(C)C[C@H](OC(=O)/C=C/c4ccccc4)[C@@H]([C@@H](OC(C)=O)[C@H]12)C3(C)C,> 147 µM,> 147 µM
86%,,,,41.7 µM,,,100%,,119%,C=C1[C@@H](OC(C)=O)CC[C@@]2(C)C[C@H](OC(C)=O)C3=C(C)C[C@H](OC(=O)C(C)CC)[C@@H]([C@@H](OC(C)=O)[C@H]12)C3(C)C (stereo partly specified),61.1 µM,> 183 µM
118%,,,,183 µM,,,118%,,141%,C=C1[C@@H](O)CC[C@@]2(C)C[C@H](OC(C)=O)C3=C(C)C[C@H](OC(C)=O)[C@@H]([C@@H](OC(C)=O)[C@H]12)C3(C)C,105 µM,149 µM
96%,,,,51.9 µM,,,98%,,125%,C=C1[C@@H](OC(C)=O)CC[C@@]2(C)C[C@H](OC(C)=O)C3=C(C)C[C@H](OC(C)=O)[C@@H]([C@@H](OC(=O)c4ccccc4)[C@H]12)C3(C)C,175 µM,125 µM
98%,,,,18.5 µM,,,97%,,114%,C=C1[C@@H](OC(C)=O)CC[C@@]2(C)C[C@H](OC(C)=O)C3=C(C)C[C@H](OC(=O)CCC)[C@@H]([C@@H](OC(C)=O)[C@H]12)C3(C)C,17.2 µM,73.4 µM
113%,102%,105%,110%,15.3 µM,114%,190%,109%,497%,113%,C=C1[C@@H](OC(C)=O)CC[C@@]2(C)C[C@H](OC(=O)/C=C/c3ccccc3)C3=C(C)C[C@H](O)[C@@H]([C@@H](OC(C)=O)[C@H]12)C3(C)C,11.5 µM,71.7 µM
141%,,,,18.5 µM,,,130%,,127%,C=C1[C@@H](OC(C)=O)CC[C@@]2(C)C[C@H](OC(C)=O)C3=C(C)C[C@H](OC(C)=O)[C@@H]([C@@H](OC(C)=O)[C@H]12)C3(C)C [TAXUYUNNANINE C],53.1 µM,130 µM
94%,,,,18.5 µM,,,81%,,168%,C=C1[C@@H](OC(C)=O)CC[C@@]2(C)C[C@H](OC(C)=O)C3=C(C)C[C@H](OC(=O)C(C)C(C)O)[C@@H]([C@@H](OC(C)=O)[C@H]12)C3(C)C (stereo partly specified) [YUNNANXANE],9.29 µM,79.4 µM
